For experiment [1], the system named is Phospho-Ser3-Cofilin/Total Cofilin. Kind of experiment: Western blot cofilin phosphorylation, Kasumi-1. It counts as cell-based. The conditions noted are these: Homo sapiens; Kasumi-1 cells; 2 h. On the procedure: Kasumi-1 cell line was originally purchased from the American Type Culture Collection (ATCC). Kasumi-1 cells are cultured in RPMI 1640 20% (v/v) FBS supplemented with 100 U/mL^−1 penicillin, 0.1 mg·mL^−1 streptomycin (PAN Biotech P06-07100). Cells were maintained at 37° C. with 5% CO2.
In a 6 wells plate (Falcon 353046), 2·10^6 cells in 1.5 mL medium are treated for 2 h with compounds. Cells are then collected and cell lysis is performed at 4° C. using RIPA buffer supplemented with protease inhibitors cocktail (Sigma-Aldrich P8340) and phosphatase inhibitors cocktail (Sigma-Aldrich P5726). Following centrifugation 30 min 15000 g 4° C., supernatants are mixed with Laemmli buffer and denaturation is performed by heating 5 min 95° C. 10 μL of samples are subjected to electrophoresis on 15% SDS-PAGE. After electro-transfer (Mini Transblot, Bio-Rad), the PVDF membrane (Merck-Millipore Immobilon P IPVH00010) is blocked with Tris Buffered Saline, pH 7.4 (TBS) with 0.1% Tween 20 and 5% BSA for 1 h RT under agitation. […] For each concentration of compound, ratio between phosphorylated cofilin and total cofilin is determined. This ratio is then expressed as percentage of control ratio (i.e., ratio from DMSO treated cells). IC50 Phospho-Ser3-Cofilin/Total Cofilin is then determined.

In another experiment the target is T1, c-RAF(h) (Homo sapiens, UniProt P04049).
T1 construct: purchased Merck-Millipore (KinaseProfiler panel service)
As to the kind of experiment: KinaseProfiler panel: c-RAF(h). It counts as biochemical. The conditions noted are these: residual activity, 5 μM inhibitor, Km ATP. How it is done: (§1) Kinase selectivity was performed on a panel of 58 recombinant protein kinases. The assays were performed in the presence of 5 μM inhibitor at the respective Km ATP for each kinase, using the KinaseProfiler panel service (Merck-Millipore). Residual activity measured in the presence of […] inhibitor is expressed as the percent of activity determined in the absence of inhibitor.

A further experiment concerns the target T2, FAK(h) (Homo sapiens, UniProt Q05397).
T2 construct: purchased Merck-Millipore (KinaseProfiler panel service)
As to the kind of experiment: KinaseProfiler panel: FAK(h). Format: biochemical. The conditions noted are these: residual activity, 5 μM inhibitor, Km ATP. How it is done:
as §1

A further experiment addresses T3, PAK5(h) (Homo sapiens, UniProt Q9P286).
T3 construct: purchased Merck-Millipore (KinaseProfiler panel service)
As to the kind of experiment: KinaseProfiler panel: PAK5(h). Format: biochemical. The conditions noted are these: residual activity, 5 μM inhibitor, Km ATP. How it is done:
as §1

For the next experiment, the target named is T4, Aurora-B(h) (Homo sapiens, UniProt Q96GD4).
T4 construct: purchased Merck-Millipore (KinaseProfiler panel service)
As to the kind of experiment: KinaseProfiler panel: Aurora-B(h). Format: biochemical. The conditions noted are these: residual activity, 5 μM inhibitor, Km ATP. On the procedure: as §1

For the next experiment, the target named is T5, PAK2(h) (Homo sapiens, UniProt Q13177).
T5 construct: purchased Merck-Millipore (KinaseProfiler panel service)
As to the kind of experiment: KinaseProfiler panel: PAK2(h). Format: biochemical. The conditions noted are these: residual activity, 5 μM inhibitor, Km ATP. On the procedure:
as §1

Another experiment concerns the target T6, IR(h), activated (Homo sapiens, UniProt P06213).
T6 construct: purchased Merck-Millipore (KinaseProfiler panel service)
Kind of experiment: KinaseProfiler panel: IR(h), activated. The conditions noted are these: residual activity, 5 μM inhibitor, Km ATP. Format: biochemical. How it is done:
as §1

The target in a further experiment is T7, TAK1(h) (Homo sapiens, UniProt O43318).
T7 construct: purchased Merck-Millipore (KinaseProfiler panel service)
As to the kind of experiment: KinaseProfiler panel: TAK1(h). It counts as biochemical. The conditions noted are these: residual activity, 5 μM inhibitor, Km ATP. On the procedure: as §1

The next experiment deals with T8, PAK1(h) (Homo sapiens, UniProt Q13153).
T8 construct: purchased Merck-Millipore (KinaseProfiler panel service)
As to the kind of experiment: KinaseProfiler panel: PAK1(h). The conditions noted are these: residual activity, 5 μM inhibitor, Km ATP. Format: biochemical. On the procedure: as §1

In the next experiment the target is T9, MRCKβ(h) (Homo sapiens, UniProt Q9Y5S2).
T9 construct: purchased Merck-Millipore (KinaseProfiler panel service)
T9 sequence (Q9Y5S2 whole entry): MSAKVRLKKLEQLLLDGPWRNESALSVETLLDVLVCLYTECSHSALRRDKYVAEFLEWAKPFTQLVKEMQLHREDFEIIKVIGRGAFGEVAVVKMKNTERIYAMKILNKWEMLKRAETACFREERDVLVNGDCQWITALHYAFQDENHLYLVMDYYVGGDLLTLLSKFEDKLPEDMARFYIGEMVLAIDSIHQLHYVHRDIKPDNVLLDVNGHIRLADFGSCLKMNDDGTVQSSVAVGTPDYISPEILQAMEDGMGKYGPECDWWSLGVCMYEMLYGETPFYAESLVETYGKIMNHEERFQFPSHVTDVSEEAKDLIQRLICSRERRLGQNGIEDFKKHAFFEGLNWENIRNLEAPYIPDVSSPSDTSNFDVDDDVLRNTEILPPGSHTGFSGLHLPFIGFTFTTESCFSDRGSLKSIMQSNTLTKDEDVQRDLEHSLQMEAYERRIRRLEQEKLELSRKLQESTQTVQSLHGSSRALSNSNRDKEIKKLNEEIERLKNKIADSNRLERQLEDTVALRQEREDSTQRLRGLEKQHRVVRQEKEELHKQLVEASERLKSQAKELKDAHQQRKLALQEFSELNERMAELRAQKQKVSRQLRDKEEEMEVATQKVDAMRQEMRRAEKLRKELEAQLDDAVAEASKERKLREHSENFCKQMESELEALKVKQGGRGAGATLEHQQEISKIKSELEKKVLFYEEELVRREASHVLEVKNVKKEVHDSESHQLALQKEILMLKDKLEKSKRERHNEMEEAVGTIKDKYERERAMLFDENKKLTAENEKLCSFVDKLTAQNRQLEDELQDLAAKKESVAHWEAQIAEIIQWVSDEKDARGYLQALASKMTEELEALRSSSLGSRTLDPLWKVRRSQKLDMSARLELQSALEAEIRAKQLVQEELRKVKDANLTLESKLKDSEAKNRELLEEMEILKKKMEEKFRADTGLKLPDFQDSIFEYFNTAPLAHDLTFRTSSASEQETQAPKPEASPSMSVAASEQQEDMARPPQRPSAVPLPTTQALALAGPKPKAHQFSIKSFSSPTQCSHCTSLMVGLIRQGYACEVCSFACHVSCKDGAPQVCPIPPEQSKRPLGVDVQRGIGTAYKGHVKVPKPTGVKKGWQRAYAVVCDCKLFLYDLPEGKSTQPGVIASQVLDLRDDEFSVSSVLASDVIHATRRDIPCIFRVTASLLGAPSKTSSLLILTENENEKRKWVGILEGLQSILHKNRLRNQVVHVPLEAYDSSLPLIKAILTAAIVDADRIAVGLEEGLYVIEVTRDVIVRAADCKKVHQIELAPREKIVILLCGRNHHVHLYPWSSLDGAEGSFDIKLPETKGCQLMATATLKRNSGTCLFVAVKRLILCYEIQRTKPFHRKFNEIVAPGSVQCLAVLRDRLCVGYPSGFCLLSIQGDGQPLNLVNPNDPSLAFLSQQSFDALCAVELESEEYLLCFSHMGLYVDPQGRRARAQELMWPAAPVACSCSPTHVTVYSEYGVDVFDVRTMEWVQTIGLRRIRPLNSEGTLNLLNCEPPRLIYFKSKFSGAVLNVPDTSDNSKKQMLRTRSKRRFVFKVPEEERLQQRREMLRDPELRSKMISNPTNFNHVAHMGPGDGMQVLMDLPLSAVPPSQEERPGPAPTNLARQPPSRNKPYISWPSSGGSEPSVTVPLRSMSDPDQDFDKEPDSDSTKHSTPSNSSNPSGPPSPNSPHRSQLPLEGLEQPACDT
As to the kind of experiment: KinaseProfiler panel: MRCKβ(h). Format: biochemical. The conditions noted are these: residual activity, 5 μM inhibitor, Km ATP. On the procedure:
as §1

Another experiment deals with T10, cKit(h) (Homo sapiens, UniProt P10721).
T10 construct: purchased Merck-Millipore (KinaseProfiler panel service)
T10 sequence (P10721 26-976): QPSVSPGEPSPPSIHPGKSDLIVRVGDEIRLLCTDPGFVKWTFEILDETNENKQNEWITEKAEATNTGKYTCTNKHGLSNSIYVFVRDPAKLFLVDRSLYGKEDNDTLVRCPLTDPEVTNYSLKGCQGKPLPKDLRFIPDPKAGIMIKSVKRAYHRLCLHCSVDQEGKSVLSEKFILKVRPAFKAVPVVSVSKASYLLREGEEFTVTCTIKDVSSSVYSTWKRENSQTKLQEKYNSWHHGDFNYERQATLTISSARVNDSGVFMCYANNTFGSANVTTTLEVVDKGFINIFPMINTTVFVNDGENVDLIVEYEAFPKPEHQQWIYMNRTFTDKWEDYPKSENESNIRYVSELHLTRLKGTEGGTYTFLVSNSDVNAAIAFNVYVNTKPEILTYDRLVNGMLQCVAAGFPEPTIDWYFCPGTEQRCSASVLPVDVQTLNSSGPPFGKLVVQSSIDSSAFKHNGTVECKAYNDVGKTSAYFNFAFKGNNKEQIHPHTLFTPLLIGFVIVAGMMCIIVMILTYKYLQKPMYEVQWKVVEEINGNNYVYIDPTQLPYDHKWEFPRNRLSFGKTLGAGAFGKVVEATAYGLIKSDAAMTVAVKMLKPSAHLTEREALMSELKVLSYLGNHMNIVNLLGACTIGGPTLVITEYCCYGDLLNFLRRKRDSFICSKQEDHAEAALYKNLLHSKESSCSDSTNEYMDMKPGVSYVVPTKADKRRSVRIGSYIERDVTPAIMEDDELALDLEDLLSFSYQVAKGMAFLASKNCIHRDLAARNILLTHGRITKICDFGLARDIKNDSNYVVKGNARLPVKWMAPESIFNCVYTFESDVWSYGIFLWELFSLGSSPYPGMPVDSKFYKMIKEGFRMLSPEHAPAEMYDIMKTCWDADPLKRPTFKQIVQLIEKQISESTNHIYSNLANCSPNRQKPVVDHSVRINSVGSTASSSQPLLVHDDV
As to the kind of experiment: KinaseProfiler panel: cKit(h). Format: biochemical. The conditions noted are these: residual activity, 5 μM inhibitor, Km ATP. On the procedure: as §1

In a further experiment the target is T11, PKCα(h) (Homo sapiens, UniProt P17252).
T11 construct: purchased Merck-Millipore (KinaseProfiler panel service)
As to the kind of experiment: KinaseProfiler panel: PKCα(h). It counts as biochemical. The conditions noted are these: residual activity, 5 μM inhibitor, Km ATP. How it is done:
as §1

Another experiment concerns the target T12, PDGFRα(h) (Homo sapiens, UniProt P16234).
T12 construct: purchased Merck-Millipore (KinaseProfiler panel service)
Kind of experiment: KinaseProfiler panel: PDGFRα(h). It counts as biochemical. The conditions noted are these: residual activity, 5 μM inhibitor, Km ATP. On the procedure:
as §1

A further experiment deals with T13, IKKα(h) (Homo sapiens, UniProt O15111).
T13 construct: purchased Merck-Millipore (KinaseProfiler panel service)
Kind of experiment: KinaseProfiler panel: IKKα(h). The conditions noted are these: residual activity, 5 μM inhibitor, Km ATP. It counts as biochemical. How it is done:
as §1

For another experiment, the target named is T14, AMPKα1(h) (Homo sapiens, UniProt Q13131).
T14 construct: purchased Merck-Millipore (KinaseProfiler panel service)
Kind of experiment: KinaseProfiler panel: AMPKα1(h). The conditions noted are these: residual activity, 5 μM inhibitor, Km ATP. Format: biochemical. How it is done:
as §1

Another experiment has as its system MLCK(h). As to the kind of experiment: KinaseProfiler panel: MLCK(h). It counts as biochemical, human. The conditions noted are these: residual activity, 5 μM inhibitor, Km ATP. How it is done:
as §1

In the next experiment the target is T15, Flt3(h) (Homo sapiens, UniProt P36888).
T15 construct: purchased Merck-Millipore (KinaseProfiler panel service)
T15 sequence (P36888 27-993): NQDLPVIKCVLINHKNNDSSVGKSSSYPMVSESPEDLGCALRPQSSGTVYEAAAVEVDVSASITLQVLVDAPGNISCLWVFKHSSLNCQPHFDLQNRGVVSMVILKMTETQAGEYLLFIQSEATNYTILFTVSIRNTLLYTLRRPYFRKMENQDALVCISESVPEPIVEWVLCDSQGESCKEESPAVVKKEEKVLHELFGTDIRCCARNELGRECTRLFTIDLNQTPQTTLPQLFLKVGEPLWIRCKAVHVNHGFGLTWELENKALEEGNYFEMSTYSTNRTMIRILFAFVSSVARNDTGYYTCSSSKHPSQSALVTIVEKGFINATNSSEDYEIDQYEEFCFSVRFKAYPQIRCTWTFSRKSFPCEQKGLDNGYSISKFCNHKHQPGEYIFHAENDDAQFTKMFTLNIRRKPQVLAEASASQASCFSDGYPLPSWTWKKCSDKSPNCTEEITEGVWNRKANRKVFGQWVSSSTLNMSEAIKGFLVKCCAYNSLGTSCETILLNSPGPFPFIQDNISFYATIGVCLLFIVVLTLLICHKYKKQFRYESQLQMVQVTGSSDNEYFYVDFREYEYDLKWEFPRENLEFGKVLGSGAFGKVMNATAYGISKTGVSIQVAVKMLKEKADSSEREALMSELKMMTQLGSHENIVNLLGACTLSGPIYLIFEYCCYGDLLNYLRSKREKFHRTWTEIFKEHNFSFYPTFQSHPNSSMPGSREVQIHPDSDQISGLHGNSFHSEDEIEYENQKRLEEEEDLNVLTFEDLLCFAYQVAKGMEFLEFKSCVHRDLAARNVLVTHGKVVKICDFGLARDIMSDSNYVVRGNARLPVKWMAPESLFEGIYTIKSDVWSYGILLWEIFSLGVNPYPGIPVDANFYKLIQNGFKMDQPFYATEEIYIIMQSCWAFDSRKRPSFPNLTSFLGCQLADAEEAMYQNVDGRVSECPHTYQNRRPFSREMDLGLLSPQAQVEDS
Kind of experiment: KinaseProfiler panel: Flt3(h). Format: biochemical. The conditions noted are these: residual activity, 5 μM inhibitor, Km ATP. On the procedure:
as §1

A further experiment concerns the target T16, A-Raf(h) (Homo sapiens, UniProt P10398).
T16 construct: purchased Merck-Millipore (KinaseProfiler panel service)
Kind of experiment: KinaseProfiler panel: A-Raf(h). It counts as biochemical. The conditions noted are these: residual activity, 5 μM inhibitor, Km ATP. On the procedure:
as §1

For another experiment, the target named is T17, cKit(V560G)(h) (Homo sapiens, UniProt P10721, V560G).
T17 construct: purchased Merck-Millipore (KinaseProfiler panel service)
T17 sequence (P10721 26-976 V560G): as the sequence (P10721 26-976) above, with V535G counted along it
As to the kind of experiment: KinaseProfiler panel: cKit(V560G)(h). It counts as biochemical. The conditions noted are these: residual activity, 5 μM inhibitor, Km ATP. On the procedure:
as §1

A further experiment addresses T18, p70S6K(h) (Homo sapiens, UniProt P23443).
T18 construct: purchased Merck-Millipore (KinaseProfiler panel service)
As to the kind of experiment: KinaseProfiler panel: p70S6K(h). It counts as biochemical. The conditions noted are these: residual activity, 5 μM inhibitor, Km ATP. On the procedure: as §1

T18 sequence (P23443 whole entry): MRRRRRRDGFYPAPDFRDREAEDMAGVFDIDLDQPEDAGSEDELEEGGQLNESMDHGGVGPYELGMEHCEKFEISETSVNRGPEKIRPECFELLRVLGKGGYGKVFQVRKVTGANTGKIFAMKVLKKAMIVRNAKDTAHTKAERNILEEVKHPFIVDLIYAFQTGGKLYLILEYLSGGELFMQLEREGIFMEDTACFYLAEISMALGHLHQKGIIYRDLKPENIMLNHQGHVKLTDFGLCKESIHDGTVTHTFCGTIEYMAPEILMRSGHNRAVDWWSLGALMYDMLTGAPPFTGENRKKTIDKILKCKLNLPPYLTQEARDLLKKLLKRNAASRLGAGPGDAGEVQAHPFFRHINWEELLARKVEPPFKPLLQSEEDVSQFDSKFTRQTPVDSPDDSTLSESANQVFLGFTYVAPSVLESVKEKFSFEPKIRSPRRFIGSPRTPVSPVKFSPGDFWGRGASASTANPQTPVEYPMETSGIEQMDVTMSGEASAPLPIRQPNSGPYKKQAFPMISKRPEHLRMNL

For orientation: IC50 means the concentration that gives 50% inhibition. Read a low IC50 as higher potency. On to `O=S(=O)(Nc1cccc(-c2nc(CCO)sc2-c2ccnc(Nc3ccccc3)n2)c1F)c1c(F)cccc1F` [8 (Na)], for which the IC50 in experiment [1] is below 200 nM.
Turning to `CC(C)(C)c1nc(-c2cccc(NS(=O)(=O)c3c(F)cccc3F)c2F)c(-c2ccnc(Nc3ccccc3)n2)s1` [Compound 1, N-(3-(2-(tert-butyl)-5-(2-(phenylamino)pyrimidin-4-yl)thiazol-4-yl)-2-fluorophenyl)-2,6-difluorobenzenesulfonamide], the activity at 5 µM on c-RAF(h) is 3 to 10%; at FAK(h) it was at least 50%; on PAK5(h), at least 50%; at Aurora-B(h) it was 10 to 50%; on PAK2(h) it was at least 50%; at IR(h), activated, at least 50%. The activity at 5 µM at TAK1(h), at PAK1(h), at MRCKβ(h), at cKit(h), on PKCα(h) and at PDGFRα(h) was at least 50% in each case. Further, the activity at 5 µM at IKKα(h) is at least 50%; on AMPKα1(h), at least 50%; at Flt3(h) it was at least 50%; on A-Raf(h), at least 50%; on cKit(V560G)(h), 10 to 50%; at p70S6K(h), at least 50%. Also, in the experiment on MLCK(h), the “% activity” value is given as “− (50%≤residual activity)”.
